US20250320205A1, “STAT6 DEGRADERS” (Gilead Sciences, Inc., priority 2024, published 2025)

Columns and labels:
[1] = system: Eotaxin-3 (CCL26) release; test: Human Whole Blood Eotaxin-3 Assay (IL-4 stimulated); type: cell-based; details: Homo sapiens; geometric mean across assay runs and compound batches; EC50 provided for test compounds with >80% Emax
In short: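 Lithium-heparin human whole blood preincubated 2 h at 37 °C with compounds (4-fold dilutions, triplicate, 0.5% DMSO final). Then stimulated with 400 pM final recombinant human IL-4 for 48 h. Eotaxin-3 in supernatant quantified by MSD immunoassay.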

[2] = molecular target: T1, STAT6 (Homo sapiens, UniProt P42226); test: STAT6 Degrader Assay (HiBiT based, HeLa LgBiT clone 4.14 cells); type: cell-based; details: for DC50: geometric mean across assay runs and compound batches, DC50 provided for test compounds with >80% Emax, read-out: STAT6 degradation DC50
T1 construct: These cells express endogenous STAT6; host or cells: HeLa LgBiT clone 4.14 (CRISPR knock-in of HiBiT into the endogenous STAT6 gene)
T1 sequence (P42226 1-847): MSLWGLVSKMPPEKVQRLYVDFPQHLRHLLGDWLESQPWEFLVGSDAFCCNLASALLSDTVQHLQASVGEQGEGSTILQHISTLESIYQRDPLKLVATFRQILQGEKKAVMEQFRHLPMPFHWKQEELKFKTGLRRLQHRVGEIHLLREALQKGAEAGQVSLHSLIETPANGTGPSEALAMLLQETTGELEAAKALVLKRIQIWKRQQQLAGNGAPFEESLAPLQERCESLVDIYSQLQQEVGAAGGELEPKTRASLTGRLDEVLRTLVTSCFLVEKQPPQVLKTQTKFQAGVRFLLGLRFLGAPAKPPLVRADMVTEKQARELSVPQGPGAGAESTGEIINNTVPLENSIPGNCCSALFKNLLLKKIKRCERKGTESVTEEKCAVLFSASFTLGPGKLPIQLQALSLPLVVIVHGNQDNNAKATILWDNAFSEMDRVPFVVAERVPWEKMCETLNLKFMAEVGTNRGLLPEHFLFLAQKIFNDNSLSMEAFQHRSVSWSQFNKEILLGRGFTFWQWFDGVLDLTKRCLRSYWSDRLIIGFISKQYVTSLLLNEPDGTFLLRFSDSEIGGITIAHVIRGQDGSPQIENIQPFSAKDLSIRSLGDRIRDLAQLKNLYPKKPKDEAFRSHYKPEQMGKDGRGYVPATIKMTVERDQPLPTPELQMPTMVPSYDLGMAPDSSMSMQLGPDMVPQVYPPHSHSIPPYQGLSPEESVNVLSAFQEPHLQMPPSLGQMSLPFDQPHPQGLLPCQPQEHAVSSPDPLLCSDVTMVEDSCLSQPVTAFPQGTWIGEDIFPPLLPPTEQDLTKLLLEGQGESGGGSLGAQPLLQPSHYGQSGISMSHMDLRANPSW
In short: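 DC50 (nM) comes from NanoBiT luminescence of HiBiT-knock-in STAT6 in HeLa LgBiT clone 4.14 cells, treated 4-24 h at 37° C. Luminescence reflects non-degraded STAT6, with 50 μM terfenadine wells taken as full degradation.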

EC50 [1] [nM]	DC50 [2] [nM]	Emax ([2]; HeLa, maximal STAT6 degradation) [%]	SMILES
0.6	0.2		CNc1cc(=O)n(-c2ccnc3c2cc([C@H](C)N2CC=C(c4c(C)cc(C(=O)N5CCn6nc(CN7CCC(c8ccc(NC9CCC(=O)NC9=O)c(OC)c8)CC7)cc6C5)cc4F)CC2)n3C)cc1F (stereo partly drawn) [Example 2g90, 3-((4-(1-((5-(3-fluoro-4-(1-((S)-1-(4-(5-fluoro-4-(meth-ylamino)-2-oxopyridin-1(2H)-yl)-1-methyl-1H-pyrrolo[2,3-b]pyridin-2-yl)ethyl)-1,2,3,6-tetrahydropyridin-4-yl)-5-methylbenzoyl)-4,5,6,7-tetra-hydropyrazolo[1,5-a]pyrazin-2-yl)methyl)piperidin-4-yl)-2-methoxyphenyl)amino)-piperidine-2,6-dione]
0.5	0.7		CNc1cc(=O)n(-c2ccnc3c2cc([C@H](C)N2CC=C(c4c(C)cc(C(=O)N5CCn6nc(CN7CCC(c8ccc(N[C@@H]9CCC(=O)NC9=O)c(OC)c8)CC7)cc6C5)cc4F)CC2)n3C)cc1F (single isomer, unassigned) [Example 2g12]

More lines, now with the values behind:

SMILES	EC50 [1] [nM]	DC50 [2] [nM]	Emax ([2]; HeLa, maximal STAT6 degradation) [%]
CNc1ccn(-c2ccnc3c2cc([C@H](C)N2CCC(c4ccc(C(=O)N5CCC(CN6CCN(c7ccc(NC8CCC(=O)NC8=O)cc7F)CC6)CC5)cc4)CC2)n3C)c(=O)c1 (stereo partly drawn) [Example 2c31, 3-((3-fluoro-4-(4-((1-(4-(1-((S)-1-(1-methyl-4-(4-(meth-ylamino)-2-oxopyridin-1(2H)-yl)-1H-pyrrolo[2,3-b]pyridin-2-yl)ethyl)piperidin-4-yl)-benzoyl)piperidin-4-yl)meth-yl)piperzin-1-yl)phenyl)-amino)-piperidine-2,6-dione]	22.5		70 to 80
CNc1cc(=O)n(-c2ccnc3c2cc([C@H](C)N2CC=C(c4c(C)cc(C(=O)N5CCn6nc(CN7CCC(c8ccc(N[C@@H]9CCC(=O)NC9=O)cc8F)CC7)cc6C5)cc4F)CC2)n3C)cc1F (single isomer, unassigned) [Example 2g5]	2.7	0.5	
CNc1ccn(-c2ccnc3c2cc([C@@H](C)N2CCC(c4c(F)cc(C(=O)N5CCn6nc(CN7CCC(c8ccc(NC9CCC(=O)NC9=O)cc8F)CC7)cc6C5)cc4F)CC2)n3C)c(=O)c1 (stereo partly drawn) [Example 2g110, 3-((4-(1-((5-(3,5-difluoro-4-(1-((R)-1-(1-methyl-4-(4-(methylamino)-2-oxopyridin-1(2H)-yl)-1H-pyrrolo[2,3-b]pyridin-2-yl)ethyl)piperidin-4-yl)benzoyl)-4,5,6,7-tetra-hydropyrazolo[1,5-a]pyrazin-2-yl)methyl)piperidin-4-yl)-3-fluorophenyl)amino)piperi-dine-2,6-dione]	23.3	10.5	
